IC50 data for two molecules are collected here from ChEMBL document CHEMBL1687904, “Pestaloquinols A and B, isoprenylated epoxyquinols from Pestalotiopsis sp” (J Nat Prod, 2011).

In this experiment the test system is HeLa. In words: Cytotoxicity against human HeLa cells after 48 hrs by MTT assay. Type of experiment: functional, cell-based. (Formazan colour is commonly taken as a measure of viable cells.)

In general, IC50 refers to the concentration that inhibits the measured activity by half. A low value points to inhibition by little substance. `CCCCC[C@@H]1OC=C2[C@@H]3OC(C)(C)[C@@H](O)C[C@@]34O[C@H]4C(=O)[C@]23[C@H]1[C@H]1C2=C([C@H]4OC(C)(C)[C@@H](O)C[C@@]45O[C@H]5C2=O)[C@@H]3O[C@@H]1CCCCC` [PESTALOQUINOL A]: the IC50 was 1630 nM.
Then `CCCCC[C@@H]1O[C@@H]2C3=C(C(=O)[C@@H]4O[C@@]45C[C@H](O)C(C)(C)O[C@H]35)[C@H]1[C@H]1[C@H](CCCCC)OC=C3[C@@H]4OC(C)(C)[C@@H](O)C[C@@]45O[C@H]5C(=O)[C@@]312` [PESTALOQUINOL B], with 880 nM.
